EC50 data for 19 compounds are collected here from US11498903B2 (BRISTOL-MYERS SQUIBB COMPANY, priority 2017, dated 2022).

pEC50: −log10 of the molar value. Where two headings read alike, the source gives them in different places.

The target in this test is T1, human APJ receptor (Homo sapiens, UniProt P35414).
T1 construct: expressed in transfected cells
T1 sequence (P35414 1-380): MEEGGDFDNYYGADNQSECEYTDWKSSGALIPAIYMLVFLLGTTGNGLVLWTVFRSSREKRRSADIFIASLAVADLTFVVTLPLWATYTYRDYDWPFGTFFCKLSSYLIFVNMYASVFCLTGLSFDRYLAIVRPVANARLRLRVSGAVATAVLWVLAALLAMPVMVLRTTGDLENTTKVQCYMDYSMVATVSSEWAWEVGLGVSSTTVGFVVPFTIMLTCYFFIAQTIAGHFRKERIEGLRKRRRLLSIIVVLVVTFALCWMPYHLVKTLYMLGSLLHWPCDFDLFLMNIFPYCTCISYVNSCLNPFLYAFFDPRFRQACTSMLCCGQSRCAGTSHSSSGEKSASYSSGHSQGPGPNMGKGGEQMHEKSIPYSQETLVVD
The test can be described thus: Intracellular cAMP accumulation assay (APJ hcAMP, HTRF). The class given is cell-based. The conditions noted are these: HEK293 cells stably expressing human APJ receptor. In short, it runs like this:
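HEK293 cells stably expressing human APJ, 5,000/well, incubated 30 min at room temperature with compound plus […] and 2 μM forskolin. cAMP read by HTRF against a cAMP standard curve; EC50 from variable-slope sigmoidal fit, Ymax as % of (Pyr1)apelin-13 inhibition.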

The mark [1] stands for this setting: Table 1, inhibition of forskolin-mediated cAMP production, read-out: APJ hcAMP EC50.
[2] abbreviates: Table 2, read-out: APJ cAMP Human EC50.
Setting [3] is: Table 3, read-out: APJ cAMP Human EC50.

As for `COC[C@@H](NC(=O)c1ccc(-c2ccccc2-c2nc3ccccc3[nH]2)c(C(=O)O)c1)c1ccccc1` [Example 66, 2′-(1H-1,3-benzodiazol-2-yl)-4-{[(1S)-2-methoxy-1-phenylethyl]carbamoyl}-[1,1′-biphenyl]-2-carboxylic acid], the pEC50 was 7.00 to 8.00 under setting [1] and 7.00 to 8.00 under setting [2].

As to `CCC[C@@H](NC(=O)c1cc(C(=O)O)c(-c2cc(Cl)ccc2-c2nc3cc(OC)ccc3[nH]2)cc1C)c1ccccc1` [Example 67, 5′-chloro-2′-(5-methoxy-1H-1,3-benzodiazol-2-yl)-5-methyl-4-{[(1R)-1-phenylbutyl]carbamoyl}-[1,1′-biphenyl]-2-carboxylic acid], the pEC50 is above 8.00 under setting [1] and above 8.00 under setting [2].

On to `CCC[C@@H](NC(=O)c1cc(C(=O)O)c(-c2cc(Cl)ccc2-c2nc3cc(C(C)(C)C)ccc3[nH]2)cc1C)c1ccccc1` [Example 68, 2,-(5-tert-butyl-1H-1,3-benzodiazol-2-yl)-5′-chloro-5-methyl-4-{[(1R)-1-phenylbutyl]carbamoyl}-[1,1′-biphenyl]-2-carboxylic acid], for which the pEC50 was above 8.00 under setting [1] and above 8.00 under setting [2].

With `COC[C@@H](NC(=O)c1ccc(-c2cc(Cl)ccc2-c2nc3ccccc3[nH]2)c(C(=O)O)c1)c1ccccc1` [Example 69, 2′-(1H-1,3-benzodiazol-2-yl)-5′-chloro-4-{[(1S)-2-methoxy-1-phenylethyl]carbamoyl}-[1,1′-biphenyl]-2-carboxylic acid], the negative logarithm of the EC50 (pEC50) is, setting by setting: under setting [1], above 8.00; under setting [2], above 8.00.

Consider `COc1ccccc1[C@@H](C)NC(=O)c1ccc(-c2cc(Cl)ccc2-c2nc3ccccc3[nH]2)c(C(=O)O)c1` [Example 70, 2′-(1H-1,3-benzodiazol-2-yl)-5′-chloro-4-{[(1R)-1-(2-methoxyphenyl)ethyl]carbamoyl}-[1,1′-biphenyl]-2-carboxylic acid], for which the pEC50 runs as follows: under setting [1], above 8.00; under setting [2], above 8.00.

Regarding `CCC[C@H](NC(=O)c1ccc(-c2cc(Cl)ccc2-c2nc3ccccc3[nH]2)c(C(=O)O)c1)c1ccccc1` [Example 71, 2′-(1H-1,3-benzodiazol-2-yl)-5′-chloro-4-{[(1S)-1-phenylbutyl]carbamoyl}-[1,1′-biphenyl]-2-carboxylic acid], the pEC50 runs as follows: under setting [1], 7.00 to 8.00; under setting [2], 7.00 to 8.00.

As for `C[C@@H](NC(=O)c1ccc(-c2cc(Cl)ccc2-c2nc3ccccc3[nH]2)c(C(=O)O)c1)c1cccc(Cl)c1` [Example 72, 2′-(1H-1,3-benzodiazol-2-yl)-5′-chloro-4-{[(1R)-1-(3-chlorophenyl)ethyl]carbamoyl}-[1,1′-biphenyl]-2-carboxylic acid], the negative logarithm of the EC50 (pEC50) runs as follows: under setting [1], 7.00 to 8.00; under setting [2], 7.00 to 8.00.

For `C[C@@H](NC(=O)c1ccc(-c2cc(Cl)ccc2-c2nc3ccccc3[nH]2)c(C(=O)O)c1)c1cccc2ccccc12` [Example 73, 2′-(1H-1,3-benzodiazol-2-yl)-5′-chloro-4-{[(1R)-1-(naphthalen-1-yl)ethyl]carbamoyl}-[1,1′-biphenyl]-2-carboxylic acid], the pEC50 is 7.00 to 8.00 under setting [1] and 7.00 to 8.00 under setting [2].

For the compound `COc1cccc([C@@H](C)NC(=O)c2ccc(-c3cc(Cl)ccc3-c3nc4ccccc4[nH]3)c(C(=O)O)c2)c1` [Example 74, 2′-(1H-1,3-benzodiazol-2-yl)-5′-chloro-4-{[(1R)-1-(3-methoxyphenyl)ethyl]carbamoyl}-[1,1′-biphenyl]-2-carboxylic acid], the negative logarithm of the EC50 (pEC50) is 7.00 to 8.00 under setting [1] and 7.00 to 8.00 under setting [2].

`C[C@@H](NC(=O)c1ccc(-c2cc(Cl)ccc2-c2nc3ccccc3[nH]2)c(C(=O)O)c1)c1ccccc1Cl` [Example 75, 2′-(1H-1,3-benzodiazol-2-yl)-5′-chloro-4-{[(1R)-1-(2-chlorophenyl)ethyl]carbamoyl}-[1,1′-biphenyl]-2-carboxylic acid]: the pEC50 by setting is: under setting [1], 7.00 to 8.00; under setting [2], 7.00 to 8.00.

Regarding `C[C@@H](NC(=O)c1ccc(-c2cc(Cl)ccc2-c2nc3ccccc3[nH]2)c(C(=O)O)c1)c1ccccc1` [Example 76, 2′-(1H-1,3-benzodiazol-2-yl)-5′-chloro-4-{[(1R)-1-phenylethyl]carbamoyl}-[1,1′-biphenyl]-2-carboxylic acid], the negative logarithm of the EC50 (pEC50) was 7.00 to 8.00 under setting [1] and 7.00 to 8.00 under setting [2].

Take `CN(C)C[C@@H](NC(=O)c1ccc(-c2cc(Cl)ccc2-c2nc3ccccc3[nH]2)c(C(=O)O)c1)c1ccccc1` [Example 77, 2′-(1H-1,3-benzodiazol-2-yl)-5′-chloro-4-{[(1S)-2-(dimethylamino)-1-phenylethyl]carbamoyl}-[1,1′-biphenyl]-2-carboxylic acid]: the pEC50 under setting [1] was 7.00 to 8.00 and the negative logarithm of the EC50 (pEC50) under setting [2] was 7.00 to 8.00.

With `COC[C@H](Cc1ccccc1)NC(=O)c1ccc(-c2cc(Cl)ccc2-c2nc3ccccc3[nH]2)c(C(=O)O)c1` [Example 78, 2′-(1H-1,3-benzodiazol-2-yl)-5′-chloro-4-{[(2S)-1-methoxy-3-phenylpropan-2-yl]carbamoyl}-[1,1′-biphenyl]-2-carboxylic acid], the negative logarithm of the EC50 (pEC50) is 6.30 to 7.00 under setting [1] and 6.30 to 7.00 under setting [2].

As to `COC[C@@H](NC(=O)c1ccc(-c2cc(Cl)ccc2-c2nc3cc(Cl)ccc3[nH]2)c(C(=O)O)c1)c1ccccc1` [Example 79, 5′-chloro-2′-(5-chloro-1H-1,3-benzodiazol-2-yl)-4-{[(1S)-2-methoxy-1-phenylethyl]carbamoyl}-[1,1′-biphenyl]-2-carboxylic acid], the negative logarithm of the EC50 (pEC50) is above 8.00 under setting [1] and above 8.00 under setting [2].

Turning to `COC[C@@H](NC(=O)c1ccc(-c2cc(Cl)ccc2-c2nc3cc(C(C)(C)C)ccc3[nH]2)c(C(=O)O)c1)c1ccccc1` [Example 80, 2′-(5-tert-butyl-1H-1,3-benzodiazol-2-yl)-5′-chloro-4-{[(1S)-2-methoxy-1-phenylethyl]carbamoyl}-[1,1′-biphenyl]-2-carboxylic acid], the negative logarithm of the EC50 (pEC50) under setting [1] is above 8.00 and the negative-log EC50 (pEC50) under setting [2] was above 8.00.

With `CCCC(NC(=O)c1ccc(-c2c(Cl)cccc2-c2nc3cc(OC)c(F)cc3[nH]2)c(C(=O)O)c1)c1ccccc1` [Example 84, (S)-2′-chloro-6′-(6-fluoro-5-methoxy-1H-1,3-benzodiazol-2-yl)-4-{[(1R)-1-phenylbutyl]carbamoyl}-[1,1′-biphenyl]-2-carboxylic acid], the pEC50 under setting [3] is above 8.00.

Consider `CCCC(NC(=O)c1ccc(-c2c(Cl)cccc2-c2nc3cc(OC)c(OC)cc3[nH]2)c(C(=O)O)c1)c1ccccc1` [Example 93, (S)-2′-chloro-6′-(5,6-dimethoxy-1H-1,3-benzodiazol-2-yl)-4-{[(1R)-1-phenylbutyl]carbamoyl}-[1,1′-biphenyl]-2-carboxylic acid], for which the pEC50 runs as follows: under setting [1], above 8.00; under setting [3], above 8.00.

With `CCCC(NC(=O)c1ccc(-c2c(Cl)cccc2-c2ncc(-c3c(F)ccc(F)c3F)[nH]2)c(C(=O)O)c1)c1ccccc1` [Example 100, (S)-2′-chloro-4-{[(1R)-1-phenylbutyl]carbamoyl}-6′-[5-(2,3,6-trifluorophenyl)-1H-imidazol-2-yl]-[1,1′-biphenyl]-2-carboxylic acid], the negative logarithm of the EC50 (pEC50) under setting [3] is above 8.00.

In the case of `CCCC(NC(=O)c1ccc(-c2c(Cl)cccc2-c2ncc(-c3cccnc3)[nH]2)c(C(=O)O)c1)c1ccccc1` [Example 101, (S)-2′-chloro-4-{[(1R)-1-phenylbutyl]carbamoyl}-6′-[5-(pyridin-3-yl)-1H-imidazol-2-yl]-[1,1′-biphenyl]-2-carboxylic acid], the pEC50 under setting [3] is above 8.00.

A word on the pEC50: it is the negative decadic logarithm of the EC50, by convention in mol/L.
